According to the NIST ThermoML archive (doi:10.1016/j.fluid.2012.08.002):

Test: xn = mol fraction of the nth substance listed
Conditions: 101 kPa, Liquid; for speed of sound: Sing-around technique in a fixed-path interferometer; for mass density: Vibrating tube method

CCCCCCn1cc[n+](C)c1.F[P-](F)(F)(F)(F)F [1-hexyl-3-methylimidazolium hexafluorophosphate] + COCCO
Conditions | mass density [kg/m3] | speed of sound [m/s]
288.15 K, x1 = 0.0503 | 1020.76 | 1399.2
288.15 K, x1 = 0.1092 | 1067.45 | 1411
288.15 K, x1 = 0.2006 | 1121.27 | 1419.8
288.15 K, x1 = 0.3032 | 1165.23 | 1422.9
288.15 K, x1 = 0.4013 | 1197.38 | 1424.7
288.15 K, x1 = 0.5017 | 1223.62 | 1427.5
288.15 K, x1 = 0.6054 | 1245.52 | 1433.9
288.15 K, x1 = 0.7024 | 1262.69 | 1434.3
288.15 K, x1 = 0.8019 | 1277.93 | 1436.7
288.15 K, x1 = 0.9094 | 1292.27 | 1442.3
293.15 K, x1 = 0.0503 | 1016.22 | 1382.5
293.15 K, x1 = 0.1092 | 1062.97 | 1394.8
293.15 K, x1 = 0.2006 | 1116.89 | 1404.6
293.15 K, x1 = 0.3032 | 1160.9 | 1408.6
293.15 K, x1 = 0.4013 | 1193.08 | 1411.3
293.15 K, x1 = 0.5017 | 1219.44 | 1414.5
293.15 K, x1 = 0.6054 | 1241.45 | 1421.2
293.15 K, x1 = 0.7024 | 1258.71 | 1421.4
293.15 K, x1 = 0.8019 | 1273.92 | 1424
293.15 K, x1 = 0.9094 | 1288.2 | 1428.6
298.15 K, x1 = 0.0503 | 1011.72 | 1365.8
298.15 K, x1 = 0.1092 | 1058.47 | 1378.9
298.15 K, x1 = 0.2006 | 1112.46 | 1389.6
298.15 K, x1 = 0.3032 | 1156.56 | 1394.5
298.15 K, x1 = 0.4013 | 1188.79 | 1398
298.15 K, x1 = 0.5017 | 1215.23 | 1401.7
298.15 K, x1 = 0.6054 | 1237.4 | 1407.8
298.15 K, x1 = 0.7024 | 1254.67 | 1408.9
298.15 K, x1 = 0.8019 | 1269.91 | 1411.5
298.15 K, x1 = 0.9094 | 1284.2 | 1415.8
303.15 K, x1 = 0.0503 | 1007.16 | 1349.2
303.15 K, x1 = 0.1092 | 1053.96 | 1362.9
303.15 K, x1 = 0.2006 | 1108.02 | 1374.7
303.15 K, x1 = 0.3032 | 1152.21 | 1380.7
303.15 K, x1 = 0.4013 | 1184.47 | 1385.2
303.15 K, x1 = 0.5017 | 1210.98 | 1389
303.15 K, x1 = 0.6054 | 1233.3 | 1395.1
303.15 K, x1 = 0.7024 | 1250.63 | 1396.7
303.15 K, x1 = 0.8019 | 1265.91 | 1399.4
303.15 K, x1 = 0.9094 | 1280.2 | 1403.3
308.15 K, x1 = 0.0503 | 1002.49 | 1332.7
308.15 K, x1 = 0.1092 | 1049.43 | 1347.1
308.15 K, x1 = 0.2006 | 1103.58 | 1359.9
308.15 K, x1 = 0.3032 | 1147.84 | 1367.3
308.15 K, x1 = 0.4013 | 1180.37 | 1372.3
308.15 K, x1 = 0.5017 | 1206.95 | 1376.4
308.15 K, x1 = 0.6054 | 1229.34 | 1382.4
308.15 K, x1 = 0.7024 | 1246.77 | 1384.5
308.15 K, x1 = 0.8019 | 1262.04 | 1387.4
308.15 K, x1 = 0.9094 | 1276.2 | 1391.3
313.15 K, x1 = 0.0503 | 997.703 | 1316.2
313.15 K, x1 = 0.1092 | 1044.81 | 1331.4
313.15 K, x1 = 0.2006 | 1099.15 | 1345.2
313.15 K, x1 = 0.3032 | 1143.59 | 1353.7
313.15 K, x1 = 0.4013 | 1176 | 1359.4
313.15 K, x1 = 0.5017 | 1202.67 | 1364
313.15 K, x1 = 0.6054 | 1225.28 | 1370
313.15 K, x1 = 0.7024 | 1242.9 | 1372.4
313.15 K, x1 = 0.8019 | 1258.23 | 1375.7
313.15 K, x1 = 0.9094 | 1272.23 | 1379.5
318.15 K, x1 = 0.0503 | 993.086 | 1299.8
318.15 K, x1 = 0.1092 | 1040.18 | 1316
318.15 K, x1 = 0.2006 | 1094.74 | 1330.8
318.15 K, x1 = 0.3032 | 1139.13 | 1340.3
318.15 K, x1 = 0.4013 | 1171.68 | 1346.7
318.15 K, x1 = 0.5017 | 1198.47 | 1351.6
318.15 K, x1 = 0.6054 | 1221.29 | 1357.5
318.15 K, x1 = 0.7024 | 1239.06 | 1360.5
318.15 K, x1 = 0.8019 | 1254.4 | 1364.1
318.15 K, x1 = 0.9094 | 1268.47 | 1368.1
